Laboratory results from patent publication US11291756B2, “Acoustic separation for bioprocessing” (THE CHARLES STARK DRAPER LABORATORY, INC., priority 2016, dated 2022).

Tests used:
Type in all cases: cell-based
platelets [1] = assay: Acoustic separation of platelets from lymphocytes in blood buffy coat samples pretreated with a platelet activator
Protocol: Blood buffy coat samples from 3 donors (comprising lymphocytes and platelets) were subjected to acoustic energy, generally as described above. Prior to flowing the blood buffy coat samples through a microfluidic separation channel, the blood buffy coat samples were pretreated. Experimental samples were treated with 8 μM adenosine diphosphate (ADP) in buffer and control samples were treated with buffer only to a final dilution of approximately 1:3 buffy coat:buffer (about 10^9 cells/ml). The samples were incubated for 5 min before separation. The samples were flowed at 0.1 ml/min through a single polystyrene microchannel mounted on an oscillator using the methods described herein. The acoustic force displaced larger and more dense cells and platelet cell aggregates toward a center outlet (waste) while side outlets collected the lymphocyte-enriched product, generally as shown in FIG. 15. The products were compared to the input solution using both a hematology analyzer (Sysmex Corporation, Kobe, Hyogo Prefecture, Japan) to count cells and ELISA of the platelet-specific glycoprotein IIb/IIIa.

platelets [2] = assay: Platelet aggregate size produced by ADP; conditions: 10 μM ADP
platelets [3] = assay: Acoustic separation of platelets from lymphocytes in a blood sample pretreated with a platelet activator; conditions: adenosine diphosphate 2-50 μM, incubated 10-20 minutes
Protocol: A blood sample comprising lymphocytes and platelets was subjected to acoustic energy, generally as described above. Prior to flowing the blood sample through a microfluidic separation channel, the blood sample was pretreated by diluting with an additive comprising a platelet activator, adenosine diphosphate. Adenosine diphosphate was added at a concentration of 2-50 μM. The samples were incubated for 10-20 minutes before starting the acoustic separation.

Nc1ncnc2c1ncn2[C@@H]1O[C@H](COP(=O)(O)OP(=O)(O)O)[C@@H](O)[C@H]1O [ADP, adenosine diphosphate]
platelet content by glycoprotein IIb/IIIa assay (ELISA) (platelets [1]; ADP 8 μM): significantly reduced platelet content | reduction of platelet count in the product versus control (platelets [1]; ADP 8 μM): nearly ten-fold | decrease of platelet count in the product compared to the starting material (platelets [1]; ADP 8 μM in buffer, 5 min incubation, buffy coat from 3 donors, hematology analyzer, buffer control 274% increase): 69% | hematocrit of product (platelets [1]; ADP 8 μM, depleted from 10%): 4.5% | platelet depletion on increasing the concentration (platelets [1]; ADP 32 μM versus 8 μM): did not further improve platelet depletion | platelet contamination in the collected lymphocytes compared to controls (platelets [1]; ADP versus buffer-only controls): strongly reduced platelet contamination | increase of lymphocyte purity (platelets [1]; with or without ADP added, input 41% to output 84%): 104% | lymphocyte output purity (platelets [1]; with or without ADP added, input purity 41%): 84 % WBC | diameter of platelet aggregates (platelets [2]): about 10 μm | response of platelets to the acoustic field (platelets [3]): responded more strongly to the acoustic field than individual platelets
